Results on 3 molecules are retold here after BindingDB's records for doi:10.1111/cbdd.12497 (Shandong University, 2015).

The assay has as its target Reverse transcriptase protein (Human immunodeficiency virus 1, UniProt Q9WJQ1). Description: In vitro Anti-HIV RT Assay. An excerpt: The HIV-1 RTwt inhibition assay was implemented using the template/primer hybrid poly(A)9oligo(dT)15, digoxigenin- and biotin-labeled nucleotides, an antibody to digoxigenin which is conjugated to peroxidase (anti-DIG-POD), and the peroxidase substrate ABTS for quantifying the RT polymerase activity. The incorporation quantities of the digoxigenin- and biotin-labeled dUTP into DNA represented the activity of HIV-1 RT. The IC50 value corresponds to the concentration of the tested compound required to inhibit the incorporation of the labeled dUTP by 50%. The procedure for RT assay was performed as described in the kit (Roche) protocol
The molecule `Cc1cc(C#N)cc(C)c1Oc1nc(Nc2ccc(C#N)cc2)nc(N)c1Br` returned an IC50 of 89 nM.

Regarding `Cc1cc(C)cc(C(=O)c2cccnc2Oc2ccc(C#N)cc2)c1` [4-(3-(3,5-Dimethylbenzoyl)pyridin-2-yloxy)benzonitrile (6a1)], the IC50 amounted to 150000 nM. Compared with the last molecule, the IC50 is about 1700-fold higher.

Regarding `Cc1ccnc2c1NC(=O)c1cccnc1N2C1CC1` [BI-RG-587], half-maximal inhibition (IC50) was put at 580 nM.

In general, IC50 refers to the concentration that inhibits the measured activity by half. Low readings indicate greater potency in that assay, high ones weaker potency in that assay.
